Data from patent publication US20080063643A1, “Peptide Derived From Hepatitis C Virus” (priority 2003, published 2008).

What was measured:
[1] = system: peptide-specific IgG in the serum; assay: ELISA of peptide-specific IgG in sera of HCV patients and healthy donors (Example 1); format: binding, human
In short: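 Sera from 12 HCV patients and 10 healthy donors, diluted 1:100–1:400, tested by ELISA on plates coated with DSS-crosslinked HLA-A2/A24-motif HCV 1b peptides (20 µg/well); HIV peptide as negative control. Incubated 2 h at 37 °C; detection via rabbit anti-human IgG, HRP-polymer anti-rabbit, TMB. Cutoff = healthy-donor mean OD ± 3 SD.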

peptide-specific IgG = assay: Absorption and elution of peptide-specific IgG (Example 1); format: binding, human; conditions: serum of the patient of FIG. 1
Description: One hundred microliters of a plasma or serum sample diluted with 0.05% Tween 20/Block Ace (registered trademark) was added to each well and allowed to be absorbed to the peptide (20 μg/well) coated on the well of the plate at 37° C. for 2 hours. After this procedure was repeated 3 times, the peptide-specific IgG level in the supernatant was measured by ELISA. The antibody bound to the peptide-coated plate in the initial adsorption step was eluted with 30 μl/well of 5 M NaCl/50 mM citrate buffer (pH 3.0) (neutralized with 0.05% Tween 20/Block Ace containing 1.0 M Tris-HCl (pH 7.5)), and the peptide-specific IgG level in the eluted fraction was measured by ELISA.

Sequence: YLLPRRGPRL [No. 40]
- IgG antibody reactive to the peptide in the serum of single patients ([1]; representative patients, FIGS. 1 and 2): detected
- Healthy donors (n = 10) Positive % ([1]; share of 10 healthy donors with serum IgG reactive to the peptide, ELISA, cut-off value 1.83): 0%
- HCV patients (n = 12) Positive % ([1]; share of 12 HCV patients with serum IgG reactive to the peptide, ELISA, cut-off value 1.83): 100%
- absorption of the antibody reactive to C-35 peptide by the peptide (peptide-specific IgG): absorbed by C-35
- elution of the antibody reactive to C-35 peptide (peptide-specific IgG): eluted from the C-35-adsorbed fraction
